What was measured:
b-Raf = molecular target: T1, b-Raf (Homo sapiens, UniProt P15056); assay: Kinase profiling assay (ProQinase); assay type: biochemical; details: 1µM E738, 1µM ATP, recombinant protein kinase
T1 construct: purchased ProQinase
Experimental: (§1) Kinase Assay: The Kinase profiling assay was performed by ProQinase as previously described (Cheng et al.201 0).
(§2) Because E738 initially was designed as a protein kinase inhibitor, we asked if E738 induced dephoshorylation and degradation are caused by certain protein kinases. Thus we exploited protein kinase profiling containing several Smad-relative protein kinases like CDKs and GSK3ß to overview the inhibitory effect of E738 in vitro. The residual activities of kinases were measured by using recombinant protein kinases and proper substrates after treatment with 1µM E738 in the presence of 1µM ATP as our previously described. […] However the mechanism was still remained to elucidate. Recently, researchers argued that Raf kinase inhibitor may induce the activation of MAPKs in vitro and in vivo leading to the failure of cancer therapy (Hatzivassiliou nature 2010 464 431-436, Heidol cell 2010 140 209-221, Murphy PNAS 2010 107 9 4299-4304). We assumed that the indirubin activated MAPKs might be due to its inhibition against Raf kinase. Furthermore, the Lin et. al. described Stat3 inhibitor could disrupt TGFß signaling (Lin oncogene 200928 961-972). Therefore we included Raf and Stat3-relative protein kinases, like Jak, Kit and Src, in this small screening.

KIT = molecular target: T2, KIT (Homo sapiens, UniProt P10721); assay: Kinase profiling assay (ProQinase); assay type: biochemical; details: 1µM E738, 1µM ATP, recombinant protein kinase
T2 construct: purchased ProQinase
Experimental: as §1, §2

JAK2 = molecular target: T3, JAK2 (Homo sapiens, UniProt O60674); assay: Kinase profiling assay (ProQinase); assay type: biochemical; details: 1µM E738, 1µM ATP, recombinant protein kinase
T3 construct: purchased ProQinase
Experimental: as §1, §2

Src = molecular target: T4, Src (Homo sapiens, UniProt P12931); assay: Kinase profiling assay (ProQinase); assay type: biochemical; details: 1µM E738, 1µM ATP, recombinant protein kinase
T4 construct: purchased ProQinase
Experimental: as §1, §2

CDK2/CycE = molecular target: T5, CDK2/CycE (Homo sapiens, UniProt P24941); assay: Kinase profiling assay (ProQinase), residual activity; assay type: biochemical; details: 1µM E738, 1µM ATP, recombinant protein kinase
T5 construct: purchased ProQinase
Experimental: as §1, §2

CDK1/CycB1 = molecular target: T6, CDK1/CycB1 (Homo sapiens, UniProt P06493); assay: as above; assay type: biochemical; details: 1µM E738, 1µM ATP, recombinant protein kinase
T6 construct: purchased ProQinase
Experimental: as §1, §2

CDK4/CycD1 = molecular target: T7, CDK4/CycD1 (Homo sapiens, UniProt P11802); assay: as above; assay type: biochemical; details: 1µM E738, 1µM ATP, recombinant protein kinase
T7 construct: purchased ProQinase
Experimental: as §1, §2

Parp = Parp cleavage by immunoblot; assay type: cell-based; details: E738 (1µM), FCS 10% or BMP2 (100ng/mL)
Experimental: The Figures show: • Figure 1: IRDs impacted on the activation of BMP-associated Smad1/5/8 in HeLa and HFF. Phosphorylation of Smad1 (Ser463/465)/5 (Ser463/465)/8 (Ser426/428) and pan Smad1/5/8 were detected by immunoblot after 24h treatment with IRDs as indicated at 1µM or 5µM a) in HeLa with the stimuli of BMP2 (100ng/mL), b) FCS 10%, c) in HFF with the stimuli of BMP2 (100ng/mL) or d) FCS 10%. […] Data were normalized to the value of non-treated cells, show the mean ± SD of quadruplicates and are representative of three independent experiments. […] Total lysates were analyzed by immunoblot using proper antibodies. b) Cell extracts of BMP-treated HeLa cells with or without compounds were subject to immunoblot using p- and pan-Smad1/5/8 antibodies. c) HeLa cells were incubated with or without E738 (1µM) after a 1 h pulse of BMP2, d) or with DM (1µM) and E738 (1µM) for the indicated periods. • Figure 4: R-Smad regulated by E738 in time- and dose-response studies. HeLa cells were treated with BMP2 (100ng/mL) in the presence or absence of E738 (1µM) in a time course study as indicated and analyzed, a) by immunoblot using antibodies against p-Smad1/5/8 at C tail, p-Smad1/5/8 at S206), Smad1/5/8, p-Erk1/2, p-JNK and p-P38 or b) qRT-PCR using primers of ID1 and ID2. […] The expression of Smad1, Smad2, Smad4, Smurf1 and Smurf2 were analyzed by qRT- PCR. […]

T3 sequence (O60674 whole entry): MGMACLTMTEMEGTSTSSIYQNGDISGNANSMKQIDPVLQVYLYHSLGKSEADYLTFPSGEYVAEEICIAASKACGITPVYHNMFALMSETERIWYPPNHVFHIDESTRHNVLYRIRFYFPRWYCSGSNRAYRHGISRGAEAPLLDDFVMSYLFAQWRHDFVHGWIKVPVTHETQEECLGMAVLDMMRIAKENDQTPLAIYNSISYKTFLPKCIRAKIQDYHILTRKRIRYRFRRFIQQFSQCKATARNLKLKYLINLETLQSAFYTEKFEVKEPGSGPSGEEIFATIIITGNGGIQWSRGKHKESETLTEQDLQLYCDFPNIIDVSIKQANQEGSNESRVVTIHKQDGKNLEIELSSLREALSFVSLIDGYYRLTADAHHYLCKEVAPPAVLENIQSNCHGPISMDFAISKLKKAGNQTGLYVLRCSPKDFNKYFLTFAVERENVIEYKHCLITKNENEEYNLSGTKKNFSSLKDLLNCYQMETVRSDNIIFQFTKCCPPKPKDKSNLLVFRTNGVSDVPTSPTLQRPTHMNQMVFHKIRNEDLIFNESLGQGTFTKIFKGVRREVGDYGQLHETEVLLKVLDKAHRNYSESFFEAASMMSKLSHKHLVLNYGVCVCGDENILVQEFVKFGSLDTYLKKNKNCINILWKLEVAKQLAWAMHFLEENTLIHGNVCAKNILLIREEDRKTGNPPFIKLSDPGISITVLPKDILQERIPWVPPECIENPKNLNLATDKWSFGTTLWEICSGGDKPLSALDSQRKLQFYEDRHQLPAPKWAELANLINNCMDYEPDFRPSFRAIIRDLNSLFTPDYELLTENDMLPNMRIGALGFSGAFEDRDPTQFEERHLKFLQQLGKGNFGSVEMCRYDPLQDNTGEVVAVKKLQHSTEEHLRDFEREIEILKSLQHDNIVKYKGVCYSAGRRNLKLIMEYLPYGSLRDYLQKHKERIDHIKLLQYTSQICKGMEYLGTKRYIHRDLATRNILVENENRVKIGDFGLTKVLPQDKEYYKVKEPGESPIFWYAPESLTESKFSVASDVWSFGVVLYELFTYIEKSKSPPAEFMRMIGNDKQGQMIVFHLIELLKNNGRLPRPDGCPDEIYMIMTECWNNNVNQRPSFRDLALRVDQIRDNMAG
T7 sequence (P11802 whole entry): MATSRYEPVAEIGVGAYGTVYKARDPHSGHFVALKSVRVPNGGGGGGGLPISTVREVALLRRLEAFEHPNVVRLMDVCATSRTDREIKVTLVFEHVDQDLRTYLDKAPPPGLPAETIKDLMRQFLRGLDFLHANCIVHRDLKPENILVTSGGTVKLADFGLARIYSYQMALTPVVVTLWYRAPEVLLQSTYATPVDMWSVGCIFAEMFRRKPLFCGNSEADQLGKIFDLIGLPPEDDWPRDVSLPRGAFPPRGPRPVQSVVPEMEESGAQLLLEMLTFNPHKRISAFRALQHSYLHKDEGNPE
T7 sequence (P24385 whole entry partner): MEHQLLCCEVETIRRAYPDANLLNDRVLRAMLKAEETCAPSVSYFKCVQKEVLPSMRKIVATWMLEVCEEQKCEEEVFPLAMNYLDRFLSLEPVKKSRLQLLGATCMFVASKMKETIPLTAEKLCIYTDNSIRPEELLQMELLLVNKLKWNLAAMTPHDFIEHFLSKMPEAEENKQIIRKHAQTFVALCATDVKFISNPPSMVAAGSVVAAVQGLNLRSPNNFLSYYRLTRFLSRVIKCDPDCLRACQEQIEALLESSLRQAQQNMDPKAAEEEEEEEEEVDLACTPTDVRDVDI
T2 sequence (P10721 26-976): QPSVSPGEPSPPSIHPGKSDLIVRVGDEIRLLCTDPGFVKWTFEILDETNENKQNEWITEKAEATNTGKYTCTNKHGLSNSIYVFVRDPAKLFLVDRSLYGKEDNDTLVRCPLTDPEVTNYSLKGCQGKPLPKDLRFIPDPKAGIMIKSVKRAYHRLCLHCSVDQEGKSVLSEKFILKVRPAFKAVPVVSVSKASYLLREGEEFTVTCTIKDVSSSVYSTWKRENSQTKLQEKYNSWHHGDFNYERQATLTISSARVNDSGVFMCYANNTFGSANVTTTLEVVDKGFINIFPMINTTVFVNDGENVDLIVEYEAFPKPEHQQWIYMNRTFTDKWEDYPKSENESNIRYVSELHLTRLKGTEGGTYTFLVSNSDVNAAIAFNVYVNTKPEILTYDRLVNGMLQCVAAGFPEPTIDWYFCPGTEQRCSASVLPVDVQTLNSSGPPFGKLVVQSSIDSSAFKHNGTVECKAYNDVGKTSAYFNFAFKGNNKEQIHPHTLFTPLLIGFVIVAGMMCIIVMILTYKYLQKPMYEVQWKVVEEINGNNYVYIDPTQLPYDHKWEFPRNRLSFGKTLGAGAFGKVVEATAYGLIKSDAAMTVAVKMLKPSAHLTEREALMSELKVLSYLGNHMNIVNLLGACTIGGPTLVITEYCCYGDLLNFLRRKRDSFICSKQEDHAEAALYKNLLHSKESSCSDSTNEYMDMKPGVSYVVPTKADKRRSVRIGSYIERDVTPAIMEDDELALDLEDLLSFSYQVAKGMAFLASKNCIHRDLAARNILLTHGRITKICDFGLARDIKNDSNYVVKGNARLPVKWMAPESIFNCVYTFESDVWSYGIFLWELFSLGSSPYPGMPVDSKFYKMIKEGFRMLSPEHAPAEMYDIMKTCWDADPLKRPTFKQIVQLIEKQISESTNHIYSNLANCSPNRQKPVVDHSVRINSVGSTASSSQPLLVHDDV
T4 sequence (P12931 whole entry): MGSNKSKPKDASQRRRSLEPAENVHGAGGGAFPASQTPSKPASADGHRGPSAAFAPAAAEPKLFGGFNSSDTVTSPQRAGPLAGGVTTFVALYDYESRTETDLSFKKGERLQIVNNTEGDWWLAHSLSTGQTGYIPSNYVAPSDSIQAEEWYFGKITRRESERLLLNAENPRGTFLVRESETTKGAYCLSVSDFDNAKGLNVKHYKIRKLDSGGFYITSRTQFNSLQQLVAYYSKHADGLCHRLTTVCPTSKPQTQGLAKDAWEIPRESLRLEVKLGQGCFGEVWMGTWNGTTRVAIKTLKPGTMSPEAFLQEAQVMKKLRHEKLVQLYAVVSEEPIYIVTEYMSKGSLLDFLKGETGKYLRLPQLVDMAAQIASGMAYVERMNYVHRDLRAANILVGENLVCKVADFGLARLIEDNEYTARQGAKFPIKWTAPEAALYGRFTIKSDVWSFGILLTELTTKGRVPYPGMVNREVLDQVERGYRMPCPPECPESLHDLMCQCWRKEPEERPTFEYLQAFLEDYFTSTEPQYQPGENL
T6 sequence (P06493 whole entry): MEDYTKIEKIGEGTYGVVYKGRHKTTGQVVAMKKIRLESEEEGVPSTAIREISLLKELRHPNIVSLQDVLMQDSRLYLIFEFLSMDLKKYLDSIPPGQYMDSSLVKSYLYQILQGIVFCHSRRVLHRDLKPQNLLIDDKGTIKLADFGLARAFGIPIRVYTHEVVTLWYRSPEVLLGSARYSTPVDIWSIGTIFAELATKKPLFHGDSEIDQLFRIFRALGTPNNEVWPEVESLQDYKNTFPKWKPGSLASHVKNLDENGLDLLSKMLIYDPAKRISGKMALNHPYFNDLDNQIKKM
T6 sequence (P14635 whole entry partner): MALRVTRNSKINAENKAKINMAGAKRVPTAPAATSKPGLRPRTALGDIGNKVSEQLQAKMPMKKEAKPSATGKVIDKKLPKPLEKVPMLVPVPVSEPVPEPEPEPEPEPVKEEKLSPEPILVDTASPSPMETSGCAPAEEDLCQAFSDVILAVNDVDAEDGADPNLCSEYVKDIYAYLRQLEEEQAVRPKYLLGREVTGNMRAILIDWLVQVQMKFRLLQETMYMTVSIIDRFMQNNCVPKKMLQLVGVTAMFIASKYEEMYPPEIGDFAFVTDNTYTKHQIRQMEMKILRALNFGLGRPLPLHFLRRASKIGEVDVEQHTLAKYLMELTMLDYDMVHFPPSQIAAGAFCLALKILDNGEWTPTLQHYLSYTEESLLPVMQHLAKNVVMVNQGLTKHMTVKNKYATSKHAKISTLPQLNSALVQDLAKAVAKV
T1 sequence (P15056 whole entry): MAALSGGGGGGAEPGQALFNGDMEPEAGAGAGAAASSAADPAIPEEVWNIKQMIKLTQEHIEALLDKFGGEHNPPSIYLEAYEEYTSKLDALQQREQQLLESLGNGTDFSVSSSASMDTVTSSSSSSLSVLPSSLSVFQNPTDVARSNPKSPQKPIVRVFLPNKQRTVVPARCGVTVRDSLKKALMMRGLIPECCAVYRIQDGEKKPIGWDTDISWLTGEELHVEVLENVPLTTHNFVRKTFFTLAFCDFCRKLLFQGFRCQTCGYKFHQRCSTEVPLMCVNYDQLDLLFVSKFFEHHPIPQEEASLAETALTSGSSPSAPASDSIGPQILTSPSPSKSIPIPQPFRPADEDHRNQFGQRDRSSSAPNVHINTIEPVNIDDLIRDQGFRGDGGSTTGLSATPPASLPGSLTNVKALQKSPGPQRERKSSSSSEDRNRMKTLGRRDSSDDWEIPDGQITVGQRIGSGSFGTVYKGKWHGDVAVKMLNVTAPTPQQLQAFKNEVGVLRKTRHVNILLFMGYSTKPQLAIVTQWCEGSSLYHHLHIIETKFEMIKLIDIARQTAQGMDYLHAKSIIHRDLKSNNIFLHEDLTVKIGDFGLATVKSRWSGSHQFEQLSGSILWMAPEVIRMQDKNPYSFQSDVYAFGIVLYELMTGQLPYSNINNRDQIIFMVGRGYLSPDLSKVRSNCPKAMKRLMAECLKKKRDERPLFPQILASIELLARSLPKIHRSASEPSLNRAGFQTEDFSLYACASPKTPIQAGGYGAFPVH

In the case of `COc1ccc2c(c1)C(=C1Nc3ccccc3C1=NOCC(O)CO)C(=O)N2` (centres unmarked) [E738], the “blocked activity of b-Raf” value (b-Raf) is reported as 57%, the “inhibition of KIT” value (KIT) is reported as “generally inhibited” and the “inhibition of JAK2” value (JAK2) is reported as “generally inhibited”. For the same molecule, the “inhibition of Src” value (Src) was “generally inhibited”, the remaining activity at 1 µM (CDK2/CycE) was 8% and the remaining activity at 1 µM (CDK1/CycB1) was 16%. The remaining activity at 1 µM (CDK4/CycD1) was 23% and the Parp cleavage (Parp) was “induced Parp cleavage”.
